# Patent US5491145A, “Imidazopyridazines, their production and use” (Takeda Chemical Industries, Ltd., priority 1992, dated 1996)
# System: PAF-induced bronchoconstriction in guinea pigs
# Assay: Effect on platelet activating factor (PAF)-induced guinea pig bronchoconstriction (Konzett-Roessler method)
# Format: in vivo, guinea pig (male Hartley)
# Conditions: 3 mg/kg, administered orally one hour before PAF (1 μg/kg i.v.)
# Experimental: Effect on platelet activating factor (PAF)-induced guinea pig bronchoconstriction Male Hartley guinea pigs (body weights about 500 g) were used. Bronchoconstriction induced by PAF, 1 μg/kg i.v., in guinea pigs was measured using to the method of Konzett-Roessler. With the guinea pig immobilized in the dorsal position, tracheotomy was performed under urethane (1.5 g/kg i.v.) anesthesia and the trachea was connected through a cannula to a respirator. The side branch of the tracheal cannula was connected to a transducer (model 7020, Ugobasile). With the volume of air per feed being controlled at 3-7 ml, the ventilation frequency at 70/min. and the pulmonary loading pressure at 10 cm H2 O, the volume of overflow air was recorded on a […], San-ei Sokki) through the transducer. After administration of gallamine (1 mg/kg i.v.), PAF, 1 μg/kg, dissolved in physiological saline was administered through a jugular vein cannula and the induced bronchoconstriction was recorded for 15 minutes. The drug suspended in a 5% solution of gum arabic was administered orally in a dose of 10 mg/kg or 3 mg/kg one hour before PAF treatment: The results are presented in Table 1.
row,Molecule,% Inhibition of PAP-induced bronchoconstriction [%]
1,"6-(2,2-diethyl-5-sulfamoyl-1-pentyloxy)-7-methylimidazo[1,2-b]pyridazine [Example 17]",54
2,"Cc1cc2nccn2nc1OCC(C)(C)CCS(N)(=O)=O [Example 11, 6-(2,2-dimethyl-4-sulfamoyl-1-butoxy)-7-methylimidazo[1,2-b]pyridazine]",58
3,"CCC(CC)(COc1nn2ccnc2cc1C)CS(N)(=O)=O.Cl [Example 15, 6-(2,2-diethyl-3-sulfamoyl-1-propoxy)-7-methylimidazo[1,2-b]pyridazine hydrochloride]",80
4,CCC(C)(COc1nn2ccnc2cc1C)CS(N)(=O)=O (stereo not shown) [Example 20],57

# Same assay, conditions: 10 mg/kg, administered orally one hour before PAF (1 μg/kg i.v.)
row,Molecule,% Inhibition of PAP-induced bronchoconstriction [%]
1,"Cc1cc2nccn2nc1OCC(C)(C)CS(N)(=O)=O [Example 3, 6-(2,2-dimethyl-3-sulfamoyl-1-propoxy)-7-methylimidazo[1,2-b]pyridazine]",76
2,"Cc1cc(OCC(C)(C)CS(N)(=O)=O)nn2ccnc12 [Example 5, 6-(2,2-dimethyl-3-sulfamoyl-1-propoxy)-8-methylimidazo[1,2-b]pyridazine]",90
3,"Cc1cc2nccn2nc1OCC(C)(C)CCS(N)(=O)=O [Example 11, 6-(2,2-dimethyl-4-sulfamoyl-1-butoxy)-7-methylimidazo[1,2-b]pyridazine]",71
